Data from US9702005B2, “Hepatitis B viral variants with reduced susceptibility to nucleoside analogs and uses thereof” (priority 2002, dated 2017).

How the values were obtained:
HBV [1] = settings: phase II studies, 30 mg daily dose, over 12 weeks; cited from earlier work
HBV rt N236T/N238D = test: In vitro drug susceptibility, recombinant HBV/baculovirus in HepG2 cells, rt N236T/N238D; type: cell-based, hepatitis B virus
Procedure: (§1) The sensitivity/resistance profile of HBV mutants to ADV was examined in vitro using recombinant HBV/baculovirus. The procedure for analyzing the resistance profile is outlined in the following Examples 12-20.
(§2) Sf21 insect cells were maintained in supplemented Grace's insect medium further supplemented with 10% v/v heat-inactivated fetal bovine serum (Gibco BRL, Gaithersburg, Md.) in humidified incubator at 28° C. with CO2. HepG2 cells were maintained in minimal essential medium supplemented with 10% v/v heat-inactivated fetal bovine serum (MEM-FBS). HepG2 cells were grown in humidified 37° C. incubators at 5% v/v CO2.
(§3) The recombinant HBV/baculovirus system used for antiviral testing has been previously described (Delaney et al., Antimicrob Agents Chemother 45(6): 17054013, 2001). In brief, the recombinant transfer vector was created by excising a fragment containing the 1.3X HBV genome construct and cloning it into the multiple cloning region of a baculovirus vector pBlueBac4.5 (Invitrogen, Carlsbad, Calif.). […] The nucleotide sequence of the plasmid and the point mutations generated by site directed mutagenesis were confirmed by sequencing using the ABI Prism Big Dye Terminator Cycle Sequencing Ready Reaction Kit according to the manufacturer's specifications (Perkin Elmer, Cetus Norwalk, Conn.). […]

[2] = ALT in patients on treatment; type: in vivo, human
Procedure: (§4) Patient A, a person was initially referred for evaluation of thrombocytopenia and hepatosplenomegaly. At this time the patient had abnormal LFT's (ALT 67 U/L, normal <55) and the HBV DNA was 61 pg/ml (231 days prior to the start of treatment). The patient was HBsAg and HBeAg positive. The ALT's fluctuated between 50-70 IU/L from (−231 to −35 days pretreatment). ADV was commenced on Day 0 in a clinical trial on 30 mg/day. HBV DNA levels were reduced with ADV treatment. The ADV treatment was reduced to 10 mg/day (144 days post-treatment). There was a problem with the randomization treatment protocol. The patient was on antiviral treatment for 1 month only during the second year of the treatment period. The study was completed on Day 679 post ADV treatment. The patient was not on ADV treatment until the open label ADV was recommenced on Day 875 from the start of the initial ADV treatment. This second period of ADV treatment was given for 108 days (day 983 post initial ADV treatment). […] At Day 983, ADV treatment was stopped and the patient was treated with LMV.
(§5) Patient B is a liver transplant patient. The patient has been on both sequential and combination antiviral therapy including HBIG, FCV+HBIG, LMV+HBIG, LMV, LMV+GCV, LMV+FCV+GCV, LMV+GCV and finally LMV+ADV. The patient has been on long term ADV+LMV treatment for over 795 days. Patient C, is a person. Prior to ADV treatment the patient had abnormal LFT's (ALT 240 IU/L, normal <55) and the HBV DNA was 2×10^7 copies/ml. ADV was commenced on Day 0 in a clinical trial on 10 mg/day for two years. The average ALT during the two year clinical trial period ws 114 IU/L. However, the ALT was rising and at 630 days after the start of ADV treatment the ALT remained high 407 IU/L. Open label ADV was commenced on Day 668 from the start of the initial ADV treatment. This second period of ADV treatment was given for […]. […] The peak ALT during open label ADV treatment was 517 IU/L (Day 738). The next day (Day 739), ADV treatment was stopped and the patient was treated with LMV.

HBV [3] = test: Hepatitis B viral DNA levels in patients on treatment (capture hybridization assay); type: in vivo, human; settings: for HBV DNA copies/ml: open label ADV
Procedure: as §4, §5
Hepatitis B surface antigen (HBsAg), hepatitis B e antigen (HBeAg), anti-HBe and hepatitis B core antigen (HBcAg) specific IgG and IgM were measured using commercially available immunoassays (Abbott Laboratories, North Chicago, Ill., USA). Hepatitis B viral DNA levels were measured using a capture hybridization assay according to the manufacturer's directions (Digene Hybrid Capture II, Digene Diagnostics Inc., Beltsville, Md.). The manufacturers stated cut-off for detecting HBV viremia in clinical specimens was 0.7×10^6 copies/ml or 2.5 pg/ml, [Hendricks et al., Am J Clin Pathol 104: 537-46, 1995]. HBV DNA levels can also be quantitated using other commercial kits such as Cobas amplification HBV monitor kit (Roche).

HBV rt A181T/N236T/N238D = test: In vitro drug susceptibility, recombinant HBV/baculovirus in HepG2 cells, rt A181T/N236T/N238D; type: cell-based, hepatitis B virus
Procedure: as §1, §2
(§6) The recombinant HBV/baculovirus system used for antiviral testing has been previously described (Delaney et al., Antimicrob Agents Chemother 45(6): 17054013, 2001). In brief, the recombinant transfer vector was created by excising a fragment containing the 1.3X HBV genome construct and cloning it into the multiple cloning region of a baculovirus vector pBlueBac4.5 (Invitrogen, Carlsbad, Calif.). Point mutations were created by site directed mutagenesis using the commercial kits according to the manufacturer's specifications (QuikChange, Stratagene). HBV/baculovirus recombinant clones encoding the reverse transcriptase mutations rtA181T/N236T/N238D and […] in combination with the precore mutation at G1896A (pcW28 stop) or wild-type with respect to codon pcW28, were prepared by site-directed mutagenesis. The nucleotide sequence of the plasmid and the point mutations generated by site directed mutagenesis were confirmed by sequencing using the ABI Prism Big Dye Terminator Cycle Sequencing Ready Reaction Kit according to the manufacturer's specifications (Perkin Elmer, Cetus Norwalk, Conn.).
Purified recombinant transfer vector and linear AcMNPV baculovirus DNA were co-transfected into Sf21 cells using the BacNBlue transfection kit from Invitrogen (Carlsbad, Calif.); recombinant viruses were isolated by plaque assay according to the manufacturer's instructions. A series of recombinant viruses were amplified from isolated plaques by infecting 100-mm dishes of Sf21 cells. Viral DNA was extracted from amplified viruses using standard procedures. Purified viral DNA was digested with restriction enzymes and then fractionated by electrophoresis in a 1% […] agarose gel. Southern blotting was performed to determine which virus isolates contained the intact 1.3 HBV construct. A Boehringer Mannheim Random Prime DNA Labeling kit (Indianapolis, Ind.) was used to generate [P^32]-radiolabeled probes. A full-length double-stranded HBV genome was used as a template for all radiolabeled probes. […]

HBV rt L180M/M204V = test: In vitro drug susceptibility, recombinant HBV/baculovirus in HepG2 cells, rt L180M/M204V; type: cell-based, hepatitis B virus
Procedure: as §1, §2, §3

[4] = test system: Wild-type (pPC) HBV reference laboratory strain (genotype D subtype ayw); test: In vitro drug susceptibility, recombinant HBV/baculovirus in HepG2 cells, wild-type; type: cell-based, hepatitis B virus
Procedure: as §1, §2, §6
Purified recombinant transfer vector and linear AcMNPV baculovirus DNA were co-transfected into Sf21 cells using the BacNBlue transfection kit from Invitrogen (Carlsbad, Calif.); recombinant viruses were isolated by plaque assay according to the manufacturer's instructions. […]

In the case of `CC(C)(C)C(=O)OCOP(=O)(COCCn1cnc2c(N)ncnc21)OCOC(=O)C(C)(C)C` [ADV, adefovir dipivoxil], the “mean decrease in viremia” value (HBV [1]) is listed as 4 log10, the “fold increase in IC50” value (HBV rt N236T/N238D; rt N236T/N238D mutation, readout not stated) is listed as “twenty-three” and the ALT ([2]; Patient A, open label ADV, day 983 (end ADV)) is listed as 65 IU/L. For the same compound, the ALT ([2]; Patient C, ADV 10 mg/day clinical trial, day 29) was 160 IU/L, the ALT ([2]; Patient C, ADV 10 mg/day clinical trial, day 630) was 407 IU/L and the ALT ([2]; Patient C, open label ADV, day 701) was 226 IU/L. The ALT ([2]; Patient C, open label ADV, day 730) was 361 IU/L, the “ALT (peak during open label ADV)” value ([2]; Patient C, open label ADV, day 738) was 517 IU/L and the “average ALT” value ([2]; Patient C, two year clinical trial period, ADV 10 mg/day) was 114 IU/L. The “HBV DNA levels” value (HBV [3]; Patient A, ADV commenced Day 0, 30 mg/day) was “reduced”, the “HBV DNA copies/ml” value (HBV [3]; Patient A, day 904 post-ADV treatment) was 1.55 × 10^6 copies/ml and the “HBV DNA copies/ml” value (HBV [3]; Patient A, day 932) was 2.97 × 10^6 copies/ml. For the same compound, the “HBV DNA copies/ml” value (HBV [3]; Patient A, day 959) was 1.76 × 10^6 copies/ml, the “HBV DNA copies/ml” value (HBV [3]; Patient A, day 983 (end ADV)) was 1.64 × 10^6 copies/ml and the “HBV DNA copies/ml” value (HBV [3]; Patient C, day 701) was 1.5 × 10^7 copies/ml. The “HBV DNA copies/ml” value (HBV [3]; Patient C, day 730) was 3.7 × 10^6 copies/ml and the “fold increase in IC50” value (HBV rt A181T/N236T/N238D; rtA181T also present (triple mutant), readout not stated) was “five”.

With `Nc1ncnc2c1ncn2CCOCP(=O)(O)O` [Adefovir, 9-[phosphonyl-methoxyethyl]-adenine] the “In vitro Susceptibility IC50 (fold change from wild-type), Southern Blot” value (HBV rt L180M/M204V) was 0.9 fold, the “In vitro Susceptibility IC50 (fold change from wild-type), Real-time PCR” value (HBV rt N236T/N238D; Real-time PCR, rt N236T/N238D) was 23 fold and the “In vitro Susceptibility IC50 (fold change from wild-type), Real-time PCR” value ([4]; Real-time PCR) was 1 fold. The “In vitro Susceptibility IC50 (fold change from wild-type), Southern Blot” value [4] was 1 fold, the “In vitro Susceptibility IC50 (fold change from wild-type), Real-time PCR” value (HBV rt A181T/N236T/N238D; Real-time PCR, rt A181T/N236T/N238D) was 5.1 fold and the “In vitro Susceptibility IC50 (fold change from wild-type), Southern Blot” value (HBV rt A181T/N236T/N238D; rt A181T/N236T/N238D) was 7.3 fold.

With `Nc1ccn([C@@H]2CS[C@H](CO)O2)c(=O)n1` [Lamivudine, (-)-β-2'-deoxy-3'-thiacytidine] the “In vitro Susceptibility IC50 (fold change from wild-type), Southern Blot” value (HBV rt L180M/M204V) was over 2500 fold, the ALT ([2]; Patient B, day -8 (S6), pre-ADV on LMV) was 427 IU/L and the “In vitro Susceptibility IC50 (fold change from wild-type), Southern Blot” value [4] was 1 fold. The “In vitro Susceptibility IC50 (fold change from wild-type), Southern Blot” value (HBV rt A181T/N236T/N238D; rt A181T/N236T/N238D) was over 100 fold.
